From patent US20210077562A1, “ETBR ANTAGONIST COMPOUNDS, COMPOSITIONS, AND USES” (ENB Therapeutics, Inc., priority 2018, published 2021)

Columns and labels:
[1] = cited from earlier work
[2] = tested on: V600E+ (BRAF mutated) SM1 tumor; assay: SM1 tumor model, in vivo tumor growth curve over 21 days; parameters: species or system C57BL/6 mice
Excerpt: In this study 6-8 week old female C57BL/6 mice were inoculated with SM1 tumor fragments (TME* components present).

| SMILES | degradation in plasma [1] | tumor growth (FIG. 3), standard combination ([2]; dabrafenib 30 mg/kg daily by oral gavage + immune checkpoint inhibitors 10 mg/kg Q4D IP, 21 days) | efficacy on addition to anti-PD1/ETBR antagonist combination ([2]; three-part combination therapy) |
| --- | --- | --- | --- |
| CCCC[C@@H](NC(=O)[C@@H](Cc1cn(C(=O)OC)c2ccccc12)NC(=O)[C@H](CC(C)(C)C)NC(=O)N1[C@H](C)CCC[C@@H]1C)C(=O)O [BQ788, (2R)-2-[[(2R)-2-[[(2S)-2-[[(2R,6S)-2,6-dimethylpiperidine-1-carbonyl]amino]-4,4-dimethylpentanoyl]amino]-3-(1-methoxycarbonylindol-3-yl)propanoyl]amino]hexanoic acid] | rapidly degraded in plasma | – | – |
| CC(C)(C)c1nc(-c2cccc(NS(=O)(=O)c3c(F)cccc3F)c2F)c(-c2ccnc(N)n2)s1 [dabrafenib] | – | failed to shrink tumors but demonstrated intermediate tumor growth inhibition | impairs efficacy |
